We go through five compounds from ChEMBL document CHEMBL2021851, “Synthesis and SAR studies of imidazo-[1,2-a]-pyrazine Aurora kinase inhibitors with improved off-target kinase selectivity” (Bioorg Med Chem Lett, 2012).

For assay [1], the target named is T1, Interleukin-1 receptor-associated kinase 4 (Homo sapiens, UniProt Q9NWZ3).
T1 sequence (Q9NWZ3 whole entry): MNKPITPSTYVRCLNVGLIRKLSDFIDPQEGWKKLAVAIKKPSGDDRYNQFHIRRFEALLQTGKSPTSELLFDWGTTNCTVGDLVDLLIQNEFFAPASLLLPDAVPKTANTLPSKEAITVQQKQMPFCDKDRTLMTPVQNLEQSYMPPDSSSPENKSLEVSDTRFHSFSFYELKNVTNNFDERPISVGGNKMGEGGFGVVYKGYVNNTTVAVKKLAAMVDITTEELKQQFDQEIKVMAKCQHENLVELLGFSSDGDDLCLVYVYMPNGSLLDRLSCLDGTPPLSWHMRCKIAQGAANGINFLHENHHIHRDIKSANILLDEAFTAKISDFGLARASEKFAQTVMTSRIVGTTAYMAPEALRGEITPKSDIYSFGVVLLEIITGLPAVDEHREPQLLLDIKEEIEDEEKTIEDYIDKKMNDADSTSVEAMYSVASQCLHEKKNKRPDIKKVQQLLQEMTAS
The experiment in a line: Inhibition of IRAK4.

The target in assay [2] is T2, Aurora kinase B (Homo sapiens, UniProt Q96GD4). The experiment in a line: Inhibition of aurora B kinase in human HCT116 cells assessed as inhibition of histone H3 phosphorylation incubated for 1 hr by Hoechst 33342 staining based microscopic analysis. The assay is classed as cell-based, HCT-116.
The target in assay [3] is Ribosomal protein S6 kinase alpha-3 (Homo sapiens, UniProt P51812). The assay is described as follows: Inhibition of RSK2.
In assay [4] the target is T3, Serine/threonine-protein kinase Chk1 (Homo sapiens, UniProt O14757).
T3 sequence (O14757 whole entry): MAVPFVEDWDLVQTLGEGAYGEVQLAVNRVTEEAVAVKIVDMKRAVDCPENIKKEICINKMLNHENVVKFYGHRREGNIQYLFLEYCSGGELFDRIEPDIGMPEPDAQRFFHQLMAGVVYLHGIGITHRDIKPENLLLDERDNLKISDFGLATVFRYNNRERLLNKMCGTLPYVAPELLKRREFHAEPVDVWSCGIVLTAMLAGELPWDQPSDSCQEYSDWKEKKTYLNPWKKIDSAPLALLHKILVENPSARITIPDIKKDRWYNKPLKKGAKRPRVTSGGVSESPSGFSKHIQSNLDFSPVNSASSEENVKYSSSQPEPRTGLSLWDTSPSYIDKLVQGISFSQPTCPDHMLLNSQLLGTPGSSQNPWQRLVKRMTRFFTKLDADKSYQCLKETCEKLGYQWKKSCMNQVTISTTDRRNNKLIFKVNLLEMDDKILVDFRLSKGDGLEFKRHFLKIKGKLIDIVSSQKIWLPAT
The experiment in a line: Inhibition of Chk1.

The target in assay [5] is Tyrosine-protein kinase Lck (Homo sapiens, UniProt P06239). The assay is described as follows: Inhibition of LCK.
Assay [6] addresses Vascular endothelial growth factor receptor 2 (Homo sapiens, UniProt P35968). The experiment in a line: Inhibition of VEGFR2.
For assay [7], the target named is T4, Aurora kinase A (Homo sapiens, UniProt O14965).
T4 sequence (O14965 whole entry): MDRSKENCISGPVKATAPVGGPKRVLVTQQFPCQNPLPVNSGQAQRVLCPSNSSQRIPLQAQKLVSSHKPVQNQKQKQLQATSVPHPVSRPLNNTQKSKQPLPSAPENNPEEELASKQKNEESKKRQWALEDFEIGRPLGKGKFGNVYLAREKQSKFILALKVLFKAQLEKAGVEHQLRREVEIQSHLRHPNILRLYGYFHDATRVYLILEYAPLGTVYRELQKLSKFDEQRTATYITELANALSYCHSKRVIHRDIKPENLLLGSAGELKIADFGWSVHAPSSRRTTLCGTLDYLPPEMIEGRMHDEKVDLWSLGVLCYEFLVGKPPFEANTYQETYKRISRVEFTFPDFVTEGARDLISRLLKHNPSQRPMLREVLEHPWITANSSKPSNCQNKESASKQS
The experiment in a line: Inhibition of aurora A kinase using 5TAMRA-GRTGRRNSICOOH as substrate by fluorescent assay.

The target of assay [8] is T2, Aurora kinase B. The experiment in a line: Inhibition of aurora B kinase using 5TAMRA-GRTGRRNSICOOH as substrate by fluorescent assay.

SMILES strings stand for the structures. Some results are limits rather than exact numbers.

Sequence of Ribosomal protein S6 kinase alpha-3 (P51812 whole entry): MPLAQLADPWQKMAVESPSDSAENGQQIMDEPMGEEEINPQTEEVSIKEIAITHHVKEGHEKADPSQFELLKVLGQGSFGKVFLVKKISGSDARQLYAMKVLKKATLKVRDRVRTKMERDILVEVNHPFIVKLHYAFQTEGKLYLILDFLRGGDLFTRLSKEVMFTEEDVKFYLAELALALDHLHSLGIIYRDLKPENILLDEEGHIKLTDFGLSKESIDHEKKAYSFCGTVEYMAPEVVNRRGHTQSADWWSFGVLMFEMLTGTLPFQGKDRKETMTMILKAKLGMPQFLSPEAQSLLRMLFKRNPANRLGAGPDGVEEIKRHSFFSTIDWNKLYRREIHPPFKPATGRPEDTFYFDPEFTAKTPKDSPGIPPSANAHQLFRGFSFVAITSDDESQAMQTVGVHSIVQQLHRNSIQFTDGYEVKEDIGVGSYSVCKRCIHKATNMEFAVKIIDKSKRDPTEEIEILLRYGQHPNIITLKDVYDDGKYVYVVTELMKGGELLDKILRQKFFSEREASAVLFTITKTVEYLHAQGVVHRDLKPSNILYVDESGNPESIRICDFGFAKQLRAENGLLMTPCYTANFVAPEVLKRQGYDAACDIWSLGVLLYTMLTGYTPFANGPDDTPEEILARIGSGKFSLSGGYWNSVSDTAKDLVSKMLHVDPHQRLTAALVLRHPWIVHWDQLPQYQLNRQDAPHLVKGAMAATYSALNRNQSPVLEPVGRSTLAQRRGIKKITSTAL
Sequence of Tyrosine-protein kinase Lck (P06239 whole entry): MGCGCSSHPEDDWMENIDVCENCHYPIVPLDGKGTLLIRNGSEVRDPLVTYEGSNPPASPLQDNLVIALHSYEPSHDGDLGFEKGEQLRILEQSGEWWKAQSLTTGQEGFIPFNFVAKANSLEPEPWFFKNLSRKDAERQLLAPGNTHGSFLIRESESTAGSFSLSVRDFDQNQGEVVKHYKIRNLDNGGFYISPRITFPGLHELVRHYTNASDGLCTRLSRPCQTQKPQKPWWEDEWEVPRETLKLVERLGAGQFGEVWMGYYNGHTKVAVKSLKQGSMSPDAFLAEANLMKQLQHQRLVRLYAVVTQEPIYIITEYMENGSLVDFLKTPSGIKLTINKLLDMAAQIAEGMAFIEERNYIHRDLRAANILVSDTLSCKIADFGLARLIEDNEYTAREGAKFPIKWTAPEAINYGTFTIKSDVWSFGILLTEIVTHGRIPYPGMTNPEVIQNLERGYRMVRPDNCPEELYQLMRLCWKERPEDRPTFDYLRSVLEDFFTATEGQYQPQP
Sequence of Vascular endothelial growth factor receptor 2 (P35968 whole entry): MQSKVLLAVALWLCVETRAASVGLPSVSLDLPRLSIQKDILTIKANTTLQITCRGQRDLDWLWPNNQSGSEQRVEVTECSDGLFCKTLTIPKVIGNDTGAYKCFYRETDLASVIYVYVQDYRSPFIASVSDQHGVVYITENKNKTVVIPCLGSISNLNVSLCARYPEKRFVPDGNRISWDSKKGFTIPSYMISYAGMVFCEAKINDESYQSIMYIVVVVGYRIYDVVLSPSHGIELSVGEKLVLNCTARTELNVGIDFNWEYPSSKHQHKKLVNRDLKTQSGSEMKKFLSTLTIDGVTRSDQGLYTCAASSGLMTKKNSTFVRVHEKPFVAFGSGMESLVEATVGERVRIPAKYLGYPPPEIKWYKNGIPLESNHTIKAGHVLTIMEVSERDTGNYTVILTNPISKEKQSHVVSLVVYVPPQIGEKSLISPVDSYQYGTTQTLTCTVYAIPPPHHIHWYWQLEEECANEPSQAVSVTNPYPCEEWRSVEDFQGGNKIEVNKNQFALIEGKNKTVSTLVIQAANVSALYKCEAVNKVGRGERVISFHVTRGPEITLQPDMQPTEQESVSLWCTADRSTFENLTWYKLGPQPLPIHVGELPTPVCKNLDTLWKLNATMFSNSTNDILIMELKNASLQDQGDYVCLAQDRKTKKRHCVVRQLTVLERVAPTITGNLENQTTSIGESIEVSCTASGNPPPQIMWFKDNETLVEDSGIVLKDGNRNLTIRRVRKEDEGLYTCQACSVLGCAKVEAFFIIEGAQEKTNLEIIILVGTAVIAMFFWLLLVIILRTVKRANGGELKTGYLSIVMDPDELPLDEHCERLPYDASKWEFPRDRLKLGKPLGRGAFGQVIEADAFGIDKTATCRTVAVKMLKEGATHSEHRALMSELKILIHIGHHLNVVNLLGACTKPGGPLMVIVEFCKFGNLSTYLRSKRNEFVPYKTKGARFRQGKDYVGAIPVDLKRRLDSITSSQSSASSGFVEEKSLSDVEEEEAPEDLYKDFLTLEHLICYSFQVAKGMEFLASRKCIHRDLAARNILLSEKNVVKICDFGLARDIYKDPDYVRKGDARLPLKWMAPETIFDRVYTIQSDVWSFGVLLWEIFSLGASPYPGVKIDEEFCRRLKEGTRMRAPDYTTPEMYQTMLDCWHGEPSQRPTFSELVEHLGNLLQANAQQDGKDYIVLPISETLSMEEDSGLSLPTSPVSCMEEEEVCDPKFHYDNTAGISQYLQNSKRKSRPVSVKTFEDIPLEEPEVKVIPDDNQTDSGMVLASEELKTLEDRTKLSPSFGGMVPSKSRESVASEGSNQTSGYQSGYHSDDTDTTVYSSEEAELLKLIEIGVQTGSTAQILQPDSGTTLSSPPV
T2 sequence (Q96GD4 whole entry): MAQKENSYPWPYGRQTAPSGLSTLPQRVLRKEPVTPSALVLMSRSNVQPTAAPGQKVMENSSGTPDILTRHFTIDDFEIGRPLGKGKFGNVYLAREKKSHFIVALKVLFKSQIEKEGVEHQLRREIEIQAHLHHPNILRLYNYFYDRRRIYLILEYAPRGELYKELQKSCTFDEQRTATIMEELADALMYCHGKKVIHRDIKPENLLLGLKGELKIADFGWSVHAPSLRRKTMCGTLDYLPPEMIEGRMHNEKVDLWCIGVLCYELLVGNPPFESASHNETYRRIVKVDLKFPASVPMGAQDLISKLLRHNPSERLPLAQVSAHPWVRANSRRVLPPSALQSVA

Take `Cc1cn2c(-c3cn[nH]c3)cnc2c(Nc2cc(CN3CCCCC3)ns2)n1`: the IC50 is 0.056 µM in assay [1]; 0.36 µM in assay [3]; 0.02 µM in assay [4]; 0.012 µM in assay [5]; 0.004 µM in assay [6]; at most 0.004 µM in assay [7]. The compound also returned an IC50 in assay [8] of at most 0.013 µM. Besides, the EC50 in assay [2] amounted to 0.05 µM.
As to `Cc1cn2c(-c3cnn(CC(=O)Nc4ccncc4F)c3)cnc2c(Nc2cc(CN3CCCC(C)C3)ns2)n1` (stereo not given), the IC50 in assay [1] is 1.22 µM; in assay [3], 6.8 µM; in assay [4], 0.3 µM; in assay [5], 0.271 µM; in assay [6], 0.253 µM; in assay [7], below 0.004 µM. Besides, in assay [8], the half-inhibitory concentration (IC50) is at most 0.013 µM. Also, in assay [2], the EC50 turned out to be 0.062 µM.
For the compound `Cc1cn2c(-c3cnn(CC(=O)Nc4cccc(F)c4F)c3)cnc2c(Nc2cc(CN3CCCCC3)ns2)n1`, the IC50 was 1.42 µM in assay [1]; 4.3 µM in assay [3]; 0.02 µM in assay [4]; above 3 µM in assay [5]; 0.481 µM in assay [6]; 0.122 µM in assay [7]. Besides, the 50% inhibitory concentration (IC50) in assay [8] is at most 0.013 µM. The EC50 in assay [2] is 0.058 µM.
`Cc1cn2c(-c3cnn(CC(=O)NCc4cccs4)c3)cnc2c(Nc2cc(CN3CCCC(C)C3)ns2)n1` (stereo not given): the IC50 in assay [1] is 0.873 µM; in assay [3] it was 7.7 µM; in assay [4] it was 0.3 µM; in assay [5], 0.579 µM; in assay [6], 0.234 µM; in assay [7], 0.027 µM. The IC50 in assay [8] was at most 0.013 µM. Moreover, the EC50 in assay [2] is 0.193 µM.
Consider `Cc1cn2c(-c3cnn(CC(=O)Nc4ccncc4)c3)cnc2c(Nc2cc(CN3CCCC(C)C3)ns2)n1` (stereo not given), for which the IC50 in assay [1] was 1.14 µM; in assay [3], 1.1 µM; in assay [4], 0.1 µM; in assay [5], 0.731 µM; in assay [6], 0.108 µM; in assay [7], 0.012 µM. For the same compound, the IC50 in assay [8] was at most 0.013 µM. In addition, the EC50 in assay [2] came to 0.083 µM.
